# Results reported in US12544370B2, “Methods for cancer therapy” (ASCENTAGE PHARMA (SUZHOU) CO., LTD., priority 2018, dated 2026).
# Assays:
# [1] = system: Ba/F3 cells having BCR-ABL^WT
# [2] = system: murine Ba/F3 cells expressing BCR-ABL^T315I; test: Subcutaneous tumors, isogenic Ba/F3 BCR-ABL T315I model; format: in vivo
# [3] = Phase 1 trial, pharmacokinetics (Example 2); conditions: for half-life / Tmax: human, in vivo; for Tmax: median Tmax
# From the text: The eligible patients received continuous treatment until disease progression or unacceptable toxicity, consent withdrawal, or death. The primary efficacy endpoints were major cytogenetic response (MCyR) for CP and complete hematological response (CHR) for AP. MCyR includes partial cytogenetic response (PCyR) and complete cytogenetic response (CCyR). Blood samples were collected at various time points on Day 1-2 and Day 27-28 during cycle 1 for PK analyses.
# [4] = system: murine Ba/F3 cells expressing BCR-ABL^WT; test: Subcutaneous tumors, isogenic Ba/F3 BCR-ABL WT model; format: in vivo
# [5] = system: human CML xenograft model; test: Subcutaneous tumors, human CML xenograft model; format: in vivo
# [6] = system: TKI-resistant patients with chronic phase (CP) or accelerated phase (AP) CML; test: Phase I study in TKI-resistant CML, efficacy (Example 1); format: in vivo, human; conditions: for CHR achieved: 2 mg to 60 mg, within 3 cycles; for CCyR achieved / MCyR achieved: evaluable ≥3 cycles; for MCyR achieved: 12 mg to 50 mg
# From the text: The eligible patients received treatments until disease progression or intolerable toxicities. The primary efficacy endpoint in the CML AP and CP patients, was complete hematological response (CHR) and major cytogenetic response (MCyR) respectively, MCyR includes partial cytogenetic response (PCyR) and complete cytogenetic response (CCyR). Blood samples were collected at various time points on Day 1-2 and Day 27-28 during cycle 1 for PK analyses.
# [7] = Example 1, Table 2, T315I mutation
# [8] = Example 1, Table 2, Without T315I mutation
# [9] = FIG. 2A, CML-CP, 24 patients T315I−
# [10] = FIG. 2A, CML-CP, 42 patients T315I+
# [11] = FIG. 2A, CML-CP, total 66 patients
# [12] = FIG. 3A, 30 mg, CML-CP, 7 patients T315I+
# [13] = FIG. 3A, 30 mg, CML-CP, 7 patients T315I−
# [14] = FIG. 3A, 30 mg, CML-CP, total 14 patients
# [15] = FIG. 3B, 40 mg, CML-CP, 8 patients T315I−
# [16] = FIG. 3B, 40 mg, CML-CP, 10 patients T315I+
# [17] = FIG. 3B, 40 mg, CML-CP, total 18 patients
# [18] = FIG. 3C, 50 mg, CML-CP, 4 patients T315I−
# [19] = FIG. 3C, 50 mg, CML-CP, 8 patients T315I+
# [20] = FIG. 3C, 50 mg, CML-CP, total 12 patients
smiles,measurement,setting,value
"Cc1ccc(C(=O)Nc2ccc(CN3CCN(C)CC3)c(C(F)(F)F)c2)cc1C#Cc1cnc2[nH]ncc2c1 [compound of formula (I-A), 3-(2-(1H-pyrazolo[3,4-b]pyridin-5-yl)ethynyl)-4-methyl-N-(4-((4-methylpiperazin-1-yl)methyl)-3-(trifluoromethyl)phenyl)-benzamide]",survival rate of isogenic leukemia mice,[1],significantly improved the survival rate
same,effect on subcutaneous tumors,[2],complete regression
same,time at which peak concentration was reached,"[3]; Day 1, single oral administration, 1-60 mg",1 to 12 h
same,time at which peak concentration was observed,"[3]; Day 27, QOD",1 to 12 h
same,half-life,"[3]; mean terminal T1/2, Day 1, 1-60 mg, watching time window 48 hrs",17.5 to 36.5 h
same,half-life,"[3]; mean terminal T1/2, Day 27, watching time window 48 hrs",19.8 to 42.5 h
same,Tmax,"[3]; Day 1, 1-60 mg",4 to 8 h
same,Tmax,"[3]; Day 27, QOD",4 to 6 h
same,effect on subcutaneous tumors,[4],complete regression
same,effect on subcutaneous tumors,[5],complete regression
same,activity by T315I mutation status at baseline,"[6]; Example 1, Table 2",highly active in patients with or without T315I mutation at baseline
same,"Complete cytogenetic response, responders/evaluable","[6]; Example 1, Table 2, All",14/47
same,"Complete hematological response, responders/evaluable","[6]; Example 1, Table 2, All",65/70
same,"Major cytogenetic response, responders/evaluable","[6]; Example 1, Table 2, All",24/47
same,"Major molecular response, percent","[6]; Example 1, Table 2, All",(13%)
same,"Major molecular response, responders/evaluable","[6]; Example 1, Table 2, All",6/48
same,"Complete cytogenetic response, percent",[6]; [7],(45%)
same,"Complete cytogenetic response, responders/evaluable",[6]; [7],13/29
same,"Complete hematological response, percent",[6]; [7],(89%)
same,"Complete hematological response, responders/evaluable",[6]; [7],40/45
same,"Major cytogenetic response, percent",[6]; [7],(59%)
same,"Major cytogenetic response, responders/evaluable",[6]; [7],17/29
same,"Major molecular response, percent",[6]; [7],(20%)
same,"Major molecular response, responders/evaluable",[6]; [7],6/30
same,"Complete cytogenetic response, percent",[6]; [8],(6%)
same,"Complete cytogenetic response, responders/evaluable",[6]; [8],1/18
same,"Complete hematological response, percent",[6]; [8],(100%)
same,"Complete hematological response, responders/evaluable",[6]; [8],25/25
same,"Major cytogenetic response, percent",[6]; [8],(39%)
same,"Major cytogenetic response, responders/evaluable",[6]; [8],7/18
same,"Major molecular response, responders/evaluable",[6]; [8],0/18
same,CHR achieved,"[6]; Example 1, AP patients",7 (58%) n (%)
same,CCyR achieved,"[6]; Example 1, AP patients",2 (25%) n (%)
same,MCyR achieved,"[6]; Example 1, AP patients",3 (38%) n (%)
same,MMR achieved,"[6]; Example 1, CP patients",6 (15%) n (%)
same,CHR achieved,"[6]; Example 1, CP patients",58 (100%) n (%)
same,CCyR achieved,"[6]; Example 1, CP patients",12 (31%) n (%)
same,MCyR achieved,"[6]; Example 1, CP patients",21 (54%) n (%)
same,patients who achieved MCyR or MMR at the end of cycle,"[6]; Example 1, cycle number not given",More than 65%
same,CHR,"[6]; FIG. 1A, CML-CP, 32 patients T315I−",100%
same,CHR,"[6]; FIG. 1A, CML-CP, 50 patients T315I+",96%
same,CHR,"[6]; FIG. 1A, CML-CP, total 82 patients",98%
same,CHR,"[6]; FIG. 1B, CML-AP, 3 patients T315I−",100%
same,CHR,"[6]; FIG. 1B, CML-AP, 11 patients T315I+",82%
same,CHR,"[6]; FIG. 1B, CML-AP, total 14 patients",86%
same,CCyR,[6]; [9],17%
same,MCyR,[6]; [9],46%
same,PCyR,[6]; [9],29%
same,CCyR,[6]; [10],74%
same,MCyR,[6]; [10],78%
same,PCyR,[6]; [10],4%
same,CCyR,[6]; [11],53%
same,MCyR,[6]; [11],67%
same,PCyR,[6]; [11],14%
same,response rate (cytogenetic),"[6]; FIG. 2B, CML-AP, 3 patients T315I−",0
same,CCyR,"[6]; FIG. 2B, CML-AP, 9 patients T315I+",33%
same,MCyR,"[6]; FIG. 2B, CML-AP, total 12 patients",25%
same,CCyR,[6]; [12],57%
same,MCyR,[6]; [12],71%
same,PCyR,[6]; [12],14%
same,CCyR,[6]; [13],14%
same,MCyR,[6]; [13],28%
same,PCyR,[6]; [13],14%
same,CCyR,[6]; [14],36%
same,MCyR,[6]; [14],50%
same,PCyR,[6]; [14],14%
same,CCyR,[6]; [15],13%
same,MCyR,[6]; [15],50%
same,PCyR,[6]; [15],38%
same,CCyR,[6]; [16],60%
same,MCyR,[6]; [16],60%
same,CCyR,[6]; [17],38%
same,MCyR,[6]; [17],54%
same,PCyR,[6]; [17],16%
same,CCyR,[6]; [18],25%
same,MCyR,[6]; [18],50%
same,PCyR,[6]; [18],25%
same,CCyR,[6]; [19],75%
same,MCyR,[6]; [19],100%
same,PCyR,[6]; [19],25%
same,CCyR,[6]; [20],58%
same,MCyR,[6]; [20],83%
same,PCyR,[6]; [20],25%
same,MMR,"[6]; FIG. 4A, CML-CP, 24 patients T315I−",4%
same,MMR,"[6]; FIG. 4A, CML-CP, 43 patients T315I+",47%
same,MMR,"[6]; FIG. 4A, CML-CP, total 67 patients",31%
same,MMR,"[6]; FIG. 4B, CML-AP, 3 patients T315I−",0%
same,MMR,"[6]; FIG. 4B, CML-AP, 9 patients T315I+",11%
same,MMR,"[6]; FIG. 4B, CML-AP, total 12 patients",8%
